This is an account of results in US7884136B2, “Modified-release formulations of a bupropion salt” (Biovail Laboratories International S.R.L., priority 2005, dated 2011).

Read-outs that look alike come from different tables or passages of the source.

The conditions of series [1]: cited from earlier work.
The nature of series [2]: Accelerated stability study of bupropion HBr, closed bottles, 40° C./75% RH, 3 and 6 months, HPLC. Conditions: 40° C./R.H. 75%; for Chromatographic purity B) (HPLC): 4) 2-N-(tert-Butyl)-aminopropiophenone / Chromatographic purity B) (HPLC): 5) single unknown impurity (each): LOQ 0.02%, LOD 0.002%; for Chromatographic purity A) (HPLC): 1) 3′-Chloropropiophenone / Chromatographic purity A) (HPLC): 3) 3′-Chlorobenzoic acid / Chromatographic purity A) (HPLC): 2) 3′-Chloro-2-bromopropiophenone: LOQ 0.05%; for Chromatographic purity A) (HPLC): 1) 3′-Chloropropiophenone / Chromatographic purity A) (HPLC): 3) 3′-Chlorobenzoic acid: LOD 0.01%; for Chromatographic purity A) (HPLC): 2) 3′-Chloro-2-bromopropiophenone: LOD 0.04%; for Assay (HPLC): on d.b.; for Description: specification white or almost white crystalline powder; for Chromatographic purity B) (HPLC): 6) total unknown impurities: sum of all impurity peak areas. Type of series: physicochemical. The protocol: The samples were prepared in closed bottles and placed in the stability chamber. HPLC analysis was conducted on the samples prior to placing them in the stability chamber (time 0), and after 3 months and 6 months. The amounts of the main degradation products present at time 0 were compared with those amounts present after 3 months and 6 months. […] For each sample tested, at each time period, two different HPLC assays were run. The first assay labelled chromatographic purity A, measured the percentage of three impurities 3′chloropropiophenone, 3′-Chloro-2-bromopropiophenone and 3′-Chlorobenzoic acid. The second assay, labelled chromatographic purity B, measured the percentage of 2-N-(tert-Butyl)-aminopropiophenone, a single unknown impurity and the total unknown impurities.

Setting [3] is: PEG-Fatty Acid Monoester Surfactants.
Where [4] appears, read: Mono- and Diglyceride Surfactants.
Where [5] appears, read: PEG-Fatty Acid Diester Surfactants.
Where [6] appears, read: Sorbitan Fatty Acid Ester Surfactants, as reported by the manufacturer.
The mark [7] stands for this setting: Sugar Ester Surfactants, as reported by the manufacturer.
Setting [8] is: Lower Alcohol Fatty Acid Ester Surfactants, as reported by the manufacturer.
Where [9] appears, read: Transesterification Products of Oils and Alcohols.
The mark [10] stands for this setting: Ionic Surfactants, as reported by the manufacturer.
Setting [11] is: Propylene Glycol Fatty Acid Esters.

For the molecule PEG-20 glyceryl oleate, the HLB in series [1] (PEG Glycerol Fatty Acid Esters) was above 10.
PEG-12 oleate: the HLB in series [1] (setting [3]) is recorded as 14.
With `CCCCCCCCCCCC(=O)OCC(O)CO` (stereo not drawn) [Monolaurin], in series [1] (setting [4]), the HLB is below 10.
Consider PEG-6 distearate, for which, in series [1] (setting [5]), the HLB is given as 6.5.
Consider PEG 400 dioleate, for which the HLB in series [1] (setting [3]) is listed as above 10.
In the case of `CCCCCCCCCCCCCCCC(=O)OCC(O)CO` (stereo not drawn) [Glycerol monopalmitate], the HLB in series [1] (setting [4]) is 4.
For Polyglyceryl-4 pentaoleate, the HLB in series [1] (Polyglycerized Fatty Acids) is below 10.
Take Polyglyceryl-10 septaoleate: in series [1] (Polyglycerized Fatty Acids), the HLB is recorded as 3.
For the molecule Polyglyceryl-6 pentaoleate, the HLB in series [1] (Polyglycerized Fatty Acids) is on record as below 10.
Regarding Glyceryl monostearate, the HLB in series [1] (setting [4]) is 4.4.
For PEG-100 stearate, the HLB in series [1] (setting [3]) is on record as 19.
Turning to PEG-50 stearate, the HLB in series [1] (setting [3]) is given as above 10.
As for PEG-9 stearate, the HLB in series [1] (setting [3]) is given as above 10.
As for PEG-4 oleate, the HLB in series [1] (setting [3]) is given as 8.3.
Sorbitan monooleate: the HLB in series [1] (setting [6]) is on record as 4.3.
Sucrose monopalmitate: the HLB in series [1] (setting [7]) is given as above 10.
For the molecule PEG-7 oleate, the HLB in series [1] (setting [3]) is on record as 10.4.
Regarding `CCCCC/C=C\C/C=C\CCCCCCCC(=O)OCC` [Ethyl linoleate], the HLB in series [1] (setting [8]) is recorded as below 10.
As to PEG-12 distearate, the HLB in series [1] (setting [5]) is recorded as 10.7.
On to Polyglyceryl-10 oleate, for which the HLB in series [1] (Polyglycerized Fatty Acids) is recorded as 14.
Turning to Polyglyceryl-4 oleate, the HLB in series [1] (Polyglycerized Fatty Acids) is 5-7.
For the molecule PEG-12 dioleate, the HLB in series [1] (setting [5]) is given as 10.
Regarding PEG-5 stearate, in series [1] (setting [3]), the HLB is on record as 9.5.
For Polyglyceryl-3 dioleate, the HLB in series [1] (Polyglycerized Fatty Acids) is below 10.
Regarding PEG 100, 200, 300 monooleate, the HLB in series [1] (setting [3]) is listed as above 10.
Take `CCCCCC[C@@H](O)C/C=C\CCCCCCCC(=O)OCC(O)CO` (stereo partly drawn) [Glyceryl ricinoleate]: the HLB in series [1] (setting [4]) was 6.
As to Polyglyceryl-2 dioleate, the HLB in series [1] (Polyglycerized Fatty Acids) is on record as 7.
As for PEG-2 stearate, the HLB in series [1] (setting [3]) is on record as 4.
On to `CCCCCCCCCCCCCC(=O)OCC(O)CO` (stereo not drawn) [Glyceryl monomyristate (C14)], for which, in series [1] (setting [4]), the HLB is reported as 3-4.
Take `CCCCCCCCCCCCCCCCCC(=O)OCC(CO)(CO)COC(=O)CCCCCCCCCCCCCCCCC` [Pentaerythrityl distearate]: the HLB in series [1] (setting [9]) is reported as below 10.
For `CCCCCCCC/C=C\CCCCCCCC(=O)[O-].[Na+]` [Sodium oleate], the HLB in series [1] (setting [10]) is recorded as 18.
In the case of PEG-4 dilaurate [listing 1 of 2 here], in series [1] (setting [5]), the HLB was 7.
As to `CCCCCCCC(=O)OCC(O)CO` (stereo not drawn) [Glyceryl caprylate], the HLB in series [1] (setting [4]) is recorded as 5-6.
For PEG-2 oleate, the HLB in series [1] (setting [3]) is 4.5.
Take PEG-15 stearate: in series [1] (setting [3]), the HLB is 14.
On to PEG-40 stearate, for which the HLB in series [1] (setting [3]) is above 10.
For PEG 400-1000 monostearate, the HLB in series [1] (setting [3]) is above 10.
PEG-4 dioleate: the HLB in series [1] (setting [5]) is recorded as 6.
With PEG-1 stearate, in series [1] (setting [3]), the HLB is on record as 2.
In the case of Polyglyceryl-10 trioleate, the HLB in series [1] (Polyglycerized Fatty Acids) was 7.
For the molecule `CCCCCCCCCCCCCC(=O)OC(C)C` [Isopropyl myristate], the HLB in series [1] (setting [8]) was below 10.
PEG-5 oleate: in series [1] (setting [3]), the HLB was 9.5.
Regarding PEG-600 oleate, in series [1] (setting [3]), the HLB was above 10.
Regarding `CCCCCCCCCCCCOS(=O)(=O)[O-].[Na+]` [Sodium lauryl sulfate (dodecyl)], the HLB in series [1] (setting [10]) is given as 40.
On to PEG-4 dilaurate [listing 2 of 2 here], for which the HLB in series [1] (setting [5]) was 6.
As for PEG-12 ricinoleate, in series [1] (setting [3]), the HLB is on record as above 10.
As for Polyglyceryl-10 pentaoleate, in series [1] (Polyglycerized Fatty Acids), the HLB was 3.5.
Turning to `CCCCCCCCCCCCCCCCCC(=O)OCC(COC(=O)CCCCCCCCCCCCCCCCC)(COC(=O)CCCCCCCCCCCCCCCCC)COC(=O)CCCCCCCCCCCCCCCCC` [Pentaerythrityl tetrastearate], the HLB in series [1] (setting [9]) is on record as below 10.
Consider `CCCCCCCCCCCC(=O)OCC(O)CO` (stereo not drawn) [Glyceryl laurate], for which the HLB in series [1] (setting [4]) is on record as 4.
As for `CC(=O)OCC(O)CO` (stereo not drawn) [Glyceryl acetate], the HLB in series [1] (setting [4]) is below 10.
Take PEG-12 stearate: the HLB in series [1] (setting [3]) was 14.
Consider `CCCCCCCCCCCCCCCC(=O)OC[C@@H](O)[C@H]1OC[C@H](O)[C@H]1O` [Sorbitan monopalmitate], for which the HLB in series [1] (setting [6]) is 6.7.
Take PEG-6 dilaurate: the HLB in series [1] (setting [5]) was 9.8.
With PEG-400 oleate, the HLB in series [1] (setting [3]) was above 10.
As to PEG-4 distearate, the HLB in series [1] (setting [5]) is listed as 5.
Take PEG 100, 200, 300 monolaurate: the HLB in series [1] (setting [3]) was above 10.
For the molecule `CCCCCCCC(=O)OCC(C)OC(=O)CCCCCCC` (stereo not drawn) [Propylene glycol dicaprylate], the HLB in series [1] (setting [11]) was above 6.
Turning to Sucrose distearate, in series [1] (setting [7]), the HLB is given as 3.
PEG-4 stearate: the HLB in series [1] (setting [3]) is given as 6.5.
With Polyglyceryl-2 oleate, in series [1] (Polyglycerized Fatty Acids), the HLB is given as 5-7.
As to Pentaerythrityl tetraisostearate, in series [1] (setting [9]), the HLB was below 10.
For PEG-6 stearate, the HLB in series [1] (setting [3]) is given as 9.7.
For the molecule `CCCCCCCCCC(=O)OCC(C)OC(=O)CCCCCCCCC` (stereo not drawn) [Propylene glycol dicaprate], in series [1] (setting [11]), the HLB is on record as above 6.
Regarding `CCCCCCCCCCCC(=O)OCC(C)OC(=O)CCCCCCCCCCC` (stereo not drawn) [Propylene glycol dilaurate], the HLB in series [1] (setting [11]) is above 6.
As for PEG-12 dilaurate, in series [1] (setting [5]), the HLB was 11.7.
Consider `CCCCCCCC/C=C/CCCCCCCC(=O)OCC(O)CO` (stereo not drawn) [Monoelaidin (C18:1)], for which the HLB in series [1] (setting [4]) is listed as below 10.
Regarding Glyceryl dioleate, the HLB in series [1] (setting [4]) was 3-4.
Take Sucrose dipalmitate: the HLB in series [1] (setting [7]) was 7.4.
Take PEG 4-100 monooleate: the HLB in series [1] (setting [3]) is above 8.
PEG-40 oleate: the HLB in series [1] (setting [3]) is reported as 17.4.
With `CCCCCCCCCCCCCCCCCC(=O)OCC(O)CO` (stereo not drawn) [Glycerol monostearate], the HLB in series [1] (setting [4]) is given as 5-9.
Turning to Sorbitan monostearate, the HLB in series [1] (setting [6]) was 4.7.
Regarding `Br.CC(NC(C)(C)C)C(=O)c1cccc(Cl)c1` (stereo not drawn) [Bupropion.HBr D00894], in series [2] (3 month), the “Chromatographic purity (HPLC: A + B) Total impurities” value is reported as 0.1%, the “Water content (K.F.)” value is listed as 0.07%, the “Chromatographic purity B) (HPLC): 4) 2-N-(tert-Butyl)-aminopropiophenone” value is 4)0.03% and the “Chromatographic purity B) (HPLC): 5) single unknown impurity (each)” value was 5) 0.04%. In series [2] (3 month), the “Chromatographic purity A) (HPLC): 1) 3′-Chloropropiophenone” value is reported as 1) n.q, the “Chromatographic purity A) (HPLC): 3) 3′-Chlorobenzoic acid” value is 3) n.q, the “Chromatographic purity A) (HPLC): 2) 3′-Chloro-2-bromopropiophenone” value is 2) n.d and the “Assay (HPLC)” value stood at 99.6%. Moreover, in series [2] (3 month), the Description result is “conform” and the “Chromatographic purity B) (HPLC): 6) total unknown impurities” value is listed as 6) 0.06%. Also, in series [2] (6 months), the “Chromatographic purity (HPLC: A + B) Total impurities” value was found to be 0.1%, the “Water content (K.F.)” value was determined as 0.08%, the “Chromatographic purity B) (HPLC): 4) 2-N-(tert-Butyl)-aminopropiophenone” value was 4) 0.04% and the “Chromatographic purity B) (HPLC): 5) single unknown impurity (each)” value is on record as 5) n.q. In addition, in series [2] (6 months), the “Chromatographic purity A) (HPLC): 1) 3′-Chloropropiophenone” value is reported as 1) 0.05%, the “Chromatographic purity A) (HPLC): 3) 3′-Chlorobenzoic acid” value was 3) n.q, the “Chromatographic purity A) (HPLC): 2) 3′-Chloro-2-bromopropiophenone” value is given as 2) n.d and the Description result was “conform”. Further, in series [2] (time 0), the “Chromatographic purity (HPLC: A + B) Total impurities” value was 0.1%, the “Water content (K.F.)” value amounted to 0.05%, the “Chromatographic purity B) (HPLC): 4) 2-N-(tert-Butyl)-aminopropiophenone” value was 4) 0.04% and the “Chromatographic purity B) (HPLC): 5) single unknown impurity (each)” value is 5) 0.04%. Also, in series [2] (time 0), the “Chromatographic purity A) (HPLC): 1) 3′-Chloropropiophenone” value is recorded as 1) n.d, the “Chromatographic purity A) (HPLC): 3) 3′-Chlorobenzoic acid” value was 3) n.q, the “Chromatographic purity A) (HPLC): 2) 3′-Chloro-2-bromopropiophenone” value is 2) n.d and the “Assay (HPLC)” value is reported as 99.6%. In addition, in series [2] (time 0), the Description entry was “conform” and the “Chromatographic purity B) (HPLC): 6) total unknown impurities” value is 6) 0.04%.
For PEG 4-100 monolaurate, the HLB in series [1] (setting [3]) is above 9.
With Polyglyceryl-2 stearate, in series [1] (Polyglycerized Fatty Acids), the HLB is given as 5-7.
Turning to PEG-8 dioleate, the HLB in series [1] (setting [5]) is recorded as 8.8.
On to Polyglyceryl-3 distearate, for which, in series [1] (Polyglycerized Fatty Acids), the HLB is reported as below 10.
In the case of PEG-10 dipalmitate, the HLB in series [1] (setting [5]) is on record as above 10.
As to Sorbitan sesquistearate, the HLB in series [1] (setting [6]) is recorded as 4.2.
With Sorbitan trioleate, in series [1] (setting [6]), the HLB is given as 4.3.
Consider Polyglyceryl-3 oleate, for which, in series [1] (Polyglycerized Fatty Acids), the HLB was 6.5.
